According to ChEMBL document CHEMBL1140555, “Synthesis and evaluation of novel pyrazolidinone analogs of PGE2 as EP2 and EP4 receptors agonists” (Bioorg Med Chem Lett, 2007):
≈ marks a conversion by molar mass, not a printed value.

Legend:
[1] = molecular target: T1, Prostaglandin E2 receptor EP2 subtype (Homo sapiens, UniProt P43116); assay: Binding affinity at human prostaglandin EP2 receptor
[2] = molecular target: T2, Prostaglandin E2 receptor EP4 subtype (Homo sapiens, UniProt P35408); assay: Binding affinity at human prostaglandin EP4 receptor
Homo sapiens = species on record: Homo sapiens; assay: Selectivity for human EP4 over human EP2 receptor
[3] = Apparent permeability of the compound; type: ADME; details: not told
[4] = Half life in rat; type: ADME, organism-based; details: in vivo
[5] = Metabolic stability in rat liver microsomes after 1 hr; type: ADME, Microsome; details: read-out: Stability
[6] = Metabolic stability in human liver microsomes after 1 hr; type: ADME, Microsome; details: read-out: Stability
[7] = Solubility in saline; type: physicochemical
[8] = Oral bioavailability in rat; type: ADME, organism-based; details: in vivo
Mus musculus = assay: Induction of ovulation in sc dosed CD1 mouse; type: functional, organism-based
[9] = Fraction unbound ligand in rat; type: ADME
[10] = molecular target: T2, Prostaglandin E2 receptor EP4 subtype; assay: Agonist activity at human prostaglandin EP4 receptor; type: functional
[11] = Solubility in HBSS; type: physicochemical
[12] = molecular target: T1, Prostaglandin E2 receptor EP2 subtype; assay: Agonist activity at human prostaglandin EP2 receptor; type: functional

T1 sequence (P43116 whole entry): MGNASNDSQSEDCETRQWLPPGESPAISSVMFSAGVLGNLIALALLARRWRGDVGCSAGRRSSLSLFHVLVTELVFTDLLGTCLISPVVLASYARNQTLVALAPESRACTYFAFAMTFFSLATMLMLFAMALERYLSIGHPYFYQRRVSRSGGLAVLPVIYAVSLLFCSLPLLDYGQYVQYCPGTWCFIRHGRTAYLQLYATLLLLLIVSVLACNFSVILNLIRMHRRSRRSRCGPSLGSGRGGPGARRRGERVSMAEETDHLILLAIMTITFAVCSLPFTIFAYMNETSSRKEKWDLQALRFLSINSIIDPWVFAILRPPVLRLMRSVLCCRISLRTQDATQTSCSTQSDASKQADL
T2 sequence (P35408 whole entry): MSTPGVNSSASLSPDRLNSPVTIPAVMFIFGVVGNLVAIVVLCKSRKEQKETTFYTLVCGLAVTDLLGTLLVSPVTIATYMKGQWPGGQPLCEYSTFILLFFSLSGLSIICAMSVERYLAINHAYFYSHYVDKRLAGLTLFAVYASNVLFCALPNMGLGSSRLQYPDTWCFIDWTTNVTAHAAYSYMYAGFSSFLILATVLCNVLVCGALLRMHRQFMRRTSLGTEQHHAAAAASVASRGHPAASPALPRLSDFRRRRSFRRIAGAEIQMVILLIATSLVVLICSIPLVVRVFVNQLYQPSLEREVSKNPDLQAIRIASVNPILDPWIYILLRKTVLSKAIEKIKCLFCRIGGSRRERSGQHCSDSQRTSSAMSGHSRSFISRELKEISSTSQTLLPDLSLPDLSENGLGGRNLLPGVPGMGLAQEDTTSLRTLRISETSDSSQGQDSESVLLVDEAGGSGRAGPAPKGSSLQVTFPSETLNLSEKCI

Row | SMILES | Ki [1] | Ki [2] | also measured
1 | O=C(O)c1ccc(CCN2C(=O)CCN2CC[C@@H](O)Cc2cccc(I)c2)cc1 | 2030 nM | 26 nM | 
2 | O=C(O)c1ccc(CCN2C(=O)CCN2CCC(O)Cc2cccc(CCC3CC3)c2)cc1 (stereo unspecified) | 8340 nM | 330 nM | 
3 | O=C(O)c1ccc(CCN2C(=O)CCN2CCC(O)Cc2ccccc2)cc1 (stereo unspecified) |  |  | Selectivity ratio (Homo sapiens): 100
4 | CCCCCC(O)CCN1CCC(=O)N1CCc1ccc(C(=O)O)cc1 (stereo unspecified) |  |  | Selectivity ratio (Homo sapiens): 10
5 | O=C(O)c1ccc(CCN2C(=O)CCN2CCC(O)Cc2cccc(Br)c2)cc1 (stereo unspecified) | 5450 nM | 13 nM | Papp [3]: 10 ×10⁻⁶ cm/s; half-life [4]: 4.25 h; remaining at 1 h [5]: 7%; remaining at 1 h [6]: 0%; solubility [7]: 840 µg/mL (≈ 1820 µM); bioavailability [8]: 6.7%; Activity (Mus musculus): Dose-dependent effect; fraction unbound [9]: 0.61; EC50 [10]: 0.2 nM; solubility [11]: 890 µg/mL (≈ 1930 µM)
6 | O=C(O)c1ccc(CCN2C(=O)CCN2CC[C@@H](O)Cc2cccc(Br)c2)cc1 | 3070 nM | 13 nM | EC50 [12]: > 10000 nM; EC50 [10]: 0.1 nM
7 | CCCC1(C(O)CCCN2CCC(=O)N2CCc2ccc(C(=O)O)cc2)CCC1 (stereo unspecified) | 750 nM | > 50000 nM | EC50 [12]: 393 nM
8 | O=C(O)c1ccc(CCN2C(=O)CCN2CCC(O)Cc2cccc(C(F)(F)F)c2)cc1 (stereo unspecified) | 6000 nM | 57 nM | 
9 | O=C(O)c1ccc(CCN2C(=O)CCN2CCC(O)Cc2cccc(I)c2)cc1 (stereo unspecified) | 2360 nM | 27 nM | 
10 | CCCC1([C@H](O)C/C=C/[C@H]2[C@H](O)CC(=O)[C@@H]2CCCCCCC(=O)OC)CCC1 [BUTAPROST] | 110 nM | > 10000 nM | 
11 | O=C(O)c1ccc(CCN2C(=O)CCN2CC[C@@H](O)Cc2ccccc2)cc1 | 9200 nM | 134 nM | 
12 | CC(CCN1CCC(=O)N1CCc1ccc(C(=O)O)cc1)Cc1cccc(CCc2ccccc2)c1 (stereo unspecified) | 560 nM | 44 nM | 
13 | O=C(O)c1ccc(CCN2C(=O)CCN2CCC(O)Cc2cccc(Cl)c2)cc1 (stereo unspecified) |  |  | EC50 [10]: 0.2 nM
